According to PubChem BioAssay AID1508612:

Assay: passive permeability, PAMPA, ADME assay (AID 1508612)
Conditions: pH 7.4, 30.0 min, 50.0 µM

Point of comparison: `Cc1ccc2oc(NC3=NC(c4[nH]ncc4Cl)C4=C(CCCC4=O)N3)nc2c1` (stereo not drawn), Papp 1000 ×10⁻⁶ cm/s. Against it:
- COc1ccc(-c2csc(NC(=O)c3ccncc3NS(=O)(=O)c3ccc(C)cc3)n2)cc1 — higher, > 1000 ×10⁻⁶ cm/s
- O=C(O)c1ccncc1Nc1nn(CCN2CCC(F)(F)CC2)c2ccc(F)cc12 — 830-fold lower, 1.2 ×10⁻⁶ cm/s
- O=C(Cc1ccc(Cl)cc1)Nc1cnccc1C(=O)O — 140-fold lower, 7 ×10⁻⁶ cm/s
- CC(C)c1ccccc1-c1ncc(F)c(NCC2CCN(c3cnccn3)C2)n1 (stereo not drawn) — higher, > 1000 ×10⁻⁶ cm/s
- COc1cccc(NC(=S)N2CCN(c3cccc(C(F)(F)F)c3)CC2)n1 — within 1.5-fold, 735 ×10⁻⁶ cm/s
- CCOc1ccc(-c2csc(N3CCC(C(N)=O)CC3)n2)cc1 — higher, > 1000 ×10⁻⁶ cm/s
- CNc1nccc(-c2cccc3ccccc23)n1 — within 1.5-fold, 905 ×10⁻⁶ cm/s
- COc1cc2c(cc1OC)C(C[C@H]1CN(S(=O)(=O)c3cccc(C#N)c3)CC[C@H]1CC(=O)O)=NCC2 — 310-fold lower, 3.25 ×10⁻⁶ cm/s
- Fc1ccc(-c2ccc(Nc3nc(-c4ccncc4)nc4ccccc34)cc2F)cc1 — 11-fold lower, 93.6 ×10⁻⁶ cm/s
- c1ccc2c(Nc3ccc4nc[nH]c4c3)nc(-c3ccncc3)nc2c1 — 60-fold lower, 16.7 ×10⁻⁶ cm/s
- Cc1cc(-c2nnc3n2CCCCC3)c(C)n1-c1ccccc1 — 1.7-fold lower, 581 ×10⁻⁶ cm/s
- CC1CCC(NC(=O)c2ccc3c(c2)N(Cc2ccccc2F)C(=O)c2ccccc2S3)CC1 (stereo not drawn) — 370-fold lower, 2.7 ×10⁻⁶ cm/s
- CN(Cc1ccccc1)C(=O)C1CCN(Cc2cccc3ccccc23)CC1 — higher, > 1000 ×10⁻⁶ cm/s
- COc1ccc2[nH]c(=O)c(-c3noc(-c4cccs4)n3)cc2c1 — 2.8-fold lower, 351 ×10⁻⁶ cm/s
- COc1ccc(C[C@@H]2C(=O)N[C@H](C)C(=O)N(C)[C@@H]3C(=O)N(C)[C@@H](Cc4ccc(O)c(c4)Oc4ccc(cc4)[C@H]3O)C(=O)N[C@@H](C)C(=O)N[C@H](C)C(=O)N2C)cc1 — 220-fold lower, 4.5 ×10⁻⁶ cm/s
- O=c1c2ccccc2nc2n1CCC2 — 23-fold lower, 44.2 ×10⁻⁶ cm/s
- CNc1oc(-c2ccccc2-c2ccccc2)nc1C#N — within 1.5-fold, 906 ×10⁻⁶ cm/s
- Cc1cc(C)nc(N2CCCC(C(=O)NCCc3ccc(F)cc3)C2)n1 (stereo not drawn) — 16-fold lower, 62.2 ×10⁻⁶ cm/s
- COc1cccc(C(=O)Nc2ccc3c(N4CCOCC4)ncnc3c2)c1 — 26-fold lower, 39 ×10⁻⁶ cm/s
- O=C1Nc2ccccc2/C1=C\c1cc(Br)c(O)c(Br)c1 — 20-fold lower, 50.5 ×10⁻⁶ cm/s
- NCC(=O)Nc1ccc(Cl)cc1C(=O)c1ccc[nH]1 — higher, > 1000 ×10⁻⁶ cm/s
- Cc1ccc(-n2ncc3c(Nc4cccc(C(=O)O)c4)ncnc32)cc1 — 76-fold lower, 13.2 ×10⁻⁶ cm/s
- CC(C)c1ccccc1-c1ncc(F)c(NC(C)(C)c2ccc(-n3ccnn3)cc2)n1 — within 1.5-fold, 672 ×10⁻⁶ cm/s
- Cc1cccc(-n2cnc3cc(C(=O)N4CCCCCC4)ccc32)c1 — higher, > 1000 ×10⁻⁶ cm/s
- C[C@@H]1C(=O)O[C@H]2[C@H]1CC[C@@]1(C)Cc3sc(NS(=O)(=O)Cc4ccccc4)nc3[C@@H](C)[C@H]21 — higher, > 1000 ×10⁻⁶ cm/s
- Cc1cccc(-n2c(C)cc(C=C(C#N)C#N)c2C)c1 — 23-fold lower, 43 ×10⁻⁶ cm/s
- CNC(=O)Cn1cc(-c2ccc3c(c2)C(F)CC32NC(=O)N(CC(=O)N(Cc3ccc(F)cc3)[C@@H](C)C(F)(F)F)C2=O)cn1 (stereo partly drawn) — 8.7-fold lower, 115 ×10⁻⁶ cm/s
- CCC(CC)c1cc([C@H]2CN3CC[C@H]2C[C@@H]3CNS(=O)(=O)c2cccs2)nc(-c2ccncc2)n1 — higher, > 1000 ×10⁻⁶ cm/s
- CC(=O)NC1CCN(c2nc(-c3ccc(Br)cc3)cs2)CC1 — within 1.5-fold, 789 ×10⁻⁶ cm/s
- COc1ccc(-n2c(C)c(C(C)=O)c3cc(O)ccc32)cc1 — 2.4-fold lower, 415 ×10⁻⁶ cm/s
- O=C(NCCO)c1cccc(-c2cc(Nc3ccc(OC(F)(F)F)cc3)ncn2)c1 — 2.1-fold lower, 472 ×10⁻⁶ cm/s
- CN(C)CCCN1c2ccc(O)cc2Sc2ccc(Cl)cc21 — higher, > 1000 ×10⁻⁶ cm/s
- Cc1ccc(-c2cc(C(=O)Nc3ccc(-c4noc(=O)[nH]4)cc3)c3ccccc3n2)cc1C — 330-fold lower, 3 ×10⁻⁶ cm/s
- Cc1cc(NC(=S)N2CCN(c3cccc(C(F)(F)F)c3)CC2)nc2ccccc12 — 32-fold lower, 31.5 ×10⁻⁶ cm/s
- O=C(Nc1cc(C(F)(F)F)ccc1N1CCOCC1)c1n[nH]c(=O)c2ccccc12 — 19-fold lower, 53.5 ×10⁻⁶ cm/s
- N#Cc1ccc(-c2ccc(CNc3ccc(C4CCNCC4)cc3)o2)cc1 — 2.2-fold lower, 459 ×10⁻⁶ cm/s
- Cc1ccccc1N(C)C1CN([S+](=O)([O-])c2cccc(C(F)(F)F)c2)C1 — within 1.5-fold, 991 ×10⁻⁶ cm/s
- CCn1cc(CNC(=O)c2cc(-c3ccc(C)cc3)nc3ccc(Br)cc23)c(C)n1 — 180-fold lower, 5.55 ×10⁻⁶ cm/s
- COc1ccc(C2c3c(oc4ccc(Cl)cc4c3=O)C(=O)N2CCCN(C)C)cc1OC (stereo not drawn) — 4.3-fold lower, 235 ×10⁻⁶ cm/s
- O=c1c(O)c(-c2ccc(O)cc2)oc2cc(O)cc(O)c12 — 21-fold lower, 46.6 ×10⁻⁶ cm/s
- O=S(=O)(Nc1nccs1)c1ccc(NCc2cc(F)ccc2O)cc1 — 120-fold lower, 8.23 ×10⁻⁶ cm/s
- Oc1ccc(CNc2ccc(F)cc2F)c2cccnc12 — 5.6-fold lower, 178 ×10⁻⁶ cm/s
- NC(=O)C(=O)N/N=C/c1ccc([N+](=O)[O-])o1 — 130-fold lower, 7.99 ×10⁻⁶ cm/s
- Cc1cc(C)nc(NC(=S)N2CCN(c3ccc(Cl)cc3[N+](=O)[O-])CC2)c1 — higher, > 1000 ×10⁻⁶ cm/s
- Cc1cccc(-c2cc(NC(=O)c3ccccc3C)n(-c3ccccc3)n2)c1 — 1.5-fold lower, 657 ×10⁻⁶ cm/s
- Cc1noc(C)c1C(=O)N1CCC2(CC1)CCN(C(c1ccccc1)c1ccccc1)CC2 — higher, > 1000 ×10⁻⁶ cm/s
- Cn1nnnc1Sc1ncnc2sccc12 — 15-fold lower, 67.6 ×10⁻⁶ cm/s
- O=C1NC(=S)NC(=O)C1=Cc1cccn1-c1ccc(O)cc1 — 23-fold lower, 44.1 ×10⁻⁶ cm/s
- COCCCNC(=O)c1cc2cc(S(=O)(=O)N(C)C)ccc2n1C — 13-fold lower, 77.2 ×10⁻⁶ cm/s
- O=C1Nc2ccccc2C12CC2c1cc(Cl)c(O)c(Cl)c1 (stereo not drawn) — 3.6-fold lower, 278 ×10⁻⁶ cm/s
- CNc1cc(-c2nc(Nc3ccc(F)c(F)c3)c3ccccc3n2)ccn1 — 3.9-fold lower, 257 ×10⁻⁶ cm/s
- Cc1cccc(-c2[nH]c(C(C)(C)C)nc2-c2ccc3nccnc3c2)n1 — 2-fold lower, 512 ×10⁻⁶ cm/s
